The source of these data is US7968601B2, “Adamantyl acetamides as 11-β hydroxysteroid dehydrogenase inhibitors” (Janssen Pharmaceutica N.V., priority 2002, dated 2011).

Assay [1] has as its target 11b-HSD1 (Homo sapiens, UniProt P28845). Description: Enzymatic assay, 11b-HSD1 reductase activity (conversion of cortisone into cortisol). The note with it: pIC50 scored 1-3, read-out: [C1] HSD1-prot Reduct Score. In kind it is biochemical. The procedure: The effects of compounds on 11b-HSD1 dependent conversion of cortisone into cortisol (reductase activity) was studied in a reaction mixture containing 30 mM Tris-HCl buffer pH 7.2, 180 μM NADPH, 1 mM EDTA, 2 μM cortisone, 1 μl drug and/or solvent and 11 μg recombinant protein in a final volume of 100 μl.
(§1) All incubations were performed for 45 min at 37 C in a water bath. The reaction was stopped by adding 100 μl acetonitrile containing 20 μg corticosterone as internal standard. After centrifugation, the product formation was analysed in the supernatant by HPLC on a Hypersyl BDS-C18 column using 0.05 mM ammonium acetate/methanol (50/50) as solvent. In all of the aforementioned assays, the drugs to be tested were taken from a stock solution and tested at a final concentration ranging from […] to 3.10^−9M. From the thus obtained dose response curves, the pIC50 value was calculated and scored as follows; Score 1=pIC50 value<5, Score 2=pIC50 value in the range of 5 to 6, Score 3=pIC50 value>6. (in this table NT stands for Not Tested).

Assay [2] concerns the target T1, 11b-HSD2 (Homo sapiens, UniProt P80365).
T1 sequence (P80365 1-405): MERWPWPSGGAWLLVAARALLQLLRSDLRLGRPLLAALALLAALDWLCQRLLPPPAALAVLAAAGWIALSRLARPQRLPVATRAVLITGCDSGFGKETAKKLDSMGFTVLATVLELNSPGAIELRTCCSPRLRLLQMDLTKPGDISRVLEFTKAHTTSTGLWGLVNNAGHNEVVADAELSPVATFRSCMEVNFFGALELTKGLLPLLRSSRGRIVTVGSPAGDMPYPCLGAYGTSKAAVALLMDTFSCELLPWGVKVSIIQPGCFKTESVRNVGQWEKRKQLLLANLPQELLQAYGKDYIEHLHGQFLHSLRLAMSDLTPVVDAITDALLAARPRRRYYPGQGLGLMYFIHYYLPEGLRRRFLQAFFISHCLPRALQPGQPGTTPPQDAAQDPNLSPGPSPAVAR
Description: Cellular assay, 11b-HSD2 activity in HepG2 cells. More on the design: endogenous in cells; host or cells: HepG2 (ATCC HB-8065). In kind it is cell-based. The note with it: 4 hour pre-incubation, pIC50 scored 1-3, read-out: [C2] HSD2 cellular HepG2 Score. The procedure:
The effects on 11b-HSD2 activity was studied in HepG2 and LCC-PK1-cells HepG2-cells (ATCC HB-8065) were seeded in 12 well plates at a density of 100,000 cells/ml and grown at 37 C in a humidified 5% CO2 atmosphere in MEM-Rega-3 medium supplemented with 10% heat inactivated foetal calf serum, 2 mM L-glutamine and sodium bicarbonate). Medium was refreshed twice a week. Pig kidney cells (LCC-PK1, ATCC CRL-1392) were seeded at a density of 150,000 cells/ml in 12 well plates and grown at 37 C in a humidified 5% CO2 atmosphere in Medium 199 supplemented with Earls modified salt solution, 100 U/ml penicillin, 100 μg/ml streptomycin and 10% foetal calf serum. Medium was refreshed twice a week. Twenty four hours prior to the onset of the experiment, medium was changed by medium containing 10% charcoal stripped foetal calf serum.
Following a 4 hour pre-incubation with test compound, 0.5 μCi ^3H-cortisol or corticosterone, was added to the cultures. One hour later, the medium was extracted on Extrelut^3-columns with 15 ml diethyl ether and the extract was analysed by HPLC as described above.
(§2) As for the enzymatic assays, the compounds to be tested were taken from a stock solution and tested at a final concentration ranging from […] to 3.10^−9M. From the thus obtained dose response curves, the pIC50 value was calculated and scored as follows; Score 1=pIC50 value<5, Score 2=pIC50 value in the range of 5 to 6, Score 3=pIC50 value>6. (in this table NT stands for Not Tested).

Assay [3] concerns the target T2, 11b-HSD1 (Mus musculus, UniProt P50172).
T2 construct: endogenous in cells; host or cells: 3T3-L1 (ATCC-CL-173), differentiated into adipocytes
In words: Cellular assay, 11b-HSD1 activity in differentiated 3T3-L1 cells. In kind it is cell-based. The following applies: 4 hour pre-incubation, pIC50 scored 1-3, read-out: [C2] HSD1 cellular 3T3-L1 Score. The protocol:
The effects on 11b-HSD1 activity was measured in differentiated 3T3-L1 cells and rat hepatocytes.
Mouse fibroblast 3T3-L1 cells (ATCC-CL-173) were seeded at a density of 16500 cells/ml in 12 well plates and grown for 7 days in DMEM medium (supplemented with 10% heat inactivated foetal calf serum, 2 mM glutamine and 25 mg gentamycin) at 37 C in a humidified 5% CO2 atmosphere. Medium was refreshed twice a week. Fibroblasts were differentiated into adipocytes at 37 C in a 5% CO2 humidified atmosphere in growth medium containing 2 μg/ml insulin, 55 μg/ml IBMX and 39.2 μg/ml dexamethasone.
Following a 4 hour pre-incubation with test compound, 0.5 μCi ^3H-cortisone or dehydrocorticosterone, was added to the cultures. One hour later, the medium was extracted on Extrelut^3-columns with 15 ml diethyl ether and the extract was analysed by HPLC as described above.
as §2

For assay [4], the target named is T1, 11b-HSD2. In words: Enzymatic assay, 11b-HSD2 dependent dehydrogenase activity. The following applies: 11b-HSD2 dehydrogenase activity, pIC50 scored 1-3, read-out: [C1] HSD2 prot Dehydro Score. The class given is biochemical. The procedure:
The effects on the 11b-HSD2 dependent dehydrogenase activity was studied in a reaction mixture containing 0.1M sodium phosphate buffer pH 7.5, 300 μM NAD, 100 nM cortisol (of which 2 nM is 3H-radio labelled), 1 μl drug and/or solvent and 2.5 μg recombinant protein in a final volume of 100 μl.
as §1

Some results are limits rather than exact numbers.

Chain of 11b-HSD1 (Homo sapiens, UniProt P28845) (P28845 whole entry): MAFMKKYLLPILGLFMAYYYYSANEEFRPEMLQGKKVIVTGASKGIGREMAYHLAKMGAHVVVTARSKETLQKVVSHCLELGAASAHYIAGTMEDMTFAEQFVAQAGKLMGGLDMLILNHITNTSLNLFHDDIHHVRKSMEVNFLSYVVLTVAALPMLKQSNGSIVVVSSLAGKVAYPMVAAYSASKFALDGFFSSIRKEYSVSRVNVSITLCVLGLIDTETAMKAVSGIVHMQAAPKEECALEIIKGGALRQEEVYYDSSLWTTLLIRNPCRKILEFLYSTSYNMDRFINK
T2 sequence (P50172 whole entry): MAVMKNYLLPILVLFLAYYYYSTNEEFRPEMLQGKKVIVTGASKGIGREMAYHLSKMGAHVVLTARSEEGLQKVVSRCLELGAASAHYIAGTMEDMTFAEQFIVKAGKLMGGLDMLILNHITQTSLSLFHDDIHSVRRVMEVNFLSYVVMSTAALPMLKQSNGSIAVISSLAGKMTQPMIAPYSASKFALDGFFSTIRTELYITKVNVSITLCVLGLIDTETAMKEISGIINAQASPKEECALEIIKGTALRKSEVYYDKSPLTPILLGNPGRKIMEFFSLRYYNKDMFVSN

With `O=C(NC1C2CC3CC(C2)CC1C3)C1=CCOc2ccccc21` (stereo not shown) [Compound 162], the IC50 in assay [1] is less than 1 µM; in assay [2], greater than 10 µM; in assay [3] it was less than 1 µM; in assay [4] it was greater than 10 µM.
`CCCc1cccc(C(C)(C)C(=O)NC2C3CC4CC(C3)CC2C4)c1` (stereo not shown) [Compound 166]: the IC50 in assay [1] was less than 1 µM; in assay [2], greater than 10 µM; in assay [3], less than 1 µM; in assay [4], greater than 10 µM.
Take `O=C(NC1C2CC3CC(C2)CC1C3)C1CCOc2ccccc21` (stereo not shown) [Compound 167]: the IC50 is less than 1 µM in assay [1], greater than 10 µM in assay [2], less than 1 µM in assay [3] and greater than 10 µM in assay [4].
Take `O=C(NC1C2CC3CC(C2)CC1C3)C1=CCCCc2ccccc21` (stereo not shown) [Compound 168]: the IC50 in assay [1] was less than 1 µM; in assay [2] it was greater than 10 µM; in assay [3], less than 1 µM; in assay [4], greater than 10 µM.
Take `O=C(NC1C2CC3CC(C2)CC1C3)C1CCCCc2ccccc21` (stereo not shown) [Compound 169]: the IC50 in assay [1] was less than 1 µM; in assay [2], greater than 10 µM; in assay [3], less than 1 µM; in assay [4], greater than 10 µM.
As for `COc1cccc2c1OCC=C2C(=O)NC1C2CC3CC(C2)CC1C3` (stereo not shown) [Compound 171], the IC50 in assay [1] was less than 1 µM; in assay [2] it was greater than 10 µM; in assay [3], less than 1 µM; in assay [4] it was greater than 10 µM.
In the case of `O=C(NC1C2CC3CC(C2)CC1C3)C1Cc2ccccc21` (stereo not shown) [Compound 177], the IC50 in assay [1] was less than 1 µM; in assay [2] it was greater than 10 µM; in assay [3], less than 1 µM; in assay [4] it was greater than 10 µM.
On to `Cc1cc(C)c2c(c1)C(C(=O)NC1C3CC4CC(C3)CC1C4)=CCC2` (stereo not shown) [Compound 181], for which the IC50 in assay [1] was greater than 10 µM; in assay [2], greater than 10 µM; in assay [3] it was less than 1 µM; in assay [4], greater than 10 µM.
As for `O=C(NC1C2CC3CC(C2)CC1C3)C1CCSc2ccccc21` (stereo not shown) [Compound 182], the IC50 in assay [1] is less than 1 µM; in assay [2], greater than 10 µM; in assay [3], less than 1 µM; in assay [4], greater than 10 µM.
With `CC(C)(C(=O)NC1C2CC3CC(C2)CC1C3)c1cccc(CCN2CCOCC2)c1` (stereo not shown) [Compound 191], the IC50 is less than 1 µM in assay [1], greater than 10 µM in assay [2], less than 1 µM in assay [3] and greater than 10 µM in assay [4].
Take `CCOC(=O)CCc1cccc(C(C)(C)C(=O)NC2C3CC4CC(C3)CC2C4)c1` (stereo not shown) [Compound 193]: the IC50 in assay [1] is less than 1 µM; in assay [2], greater than 10 µM; in assay [3] it was less than 1 µM; in assay [4], greater than 10 µM.
As for `CC(C)(C(=O)NC1C2CC3CC(C2)CC1C3)c1cccc(CCC(=O)O)c1` (stereo not shown) [Compound 196], the IC50 in assay [1] was less than 1 µM; in assay [2], greater than 10 µM; in assay [3], less than 1 µM; in assay [4], greater than 10 µM.
Consider `O=C(NC1C2CC3CC(C2)CC1C3)C1CCc2ccccc21` (stereo not shown) [Compound 197], for which the IC50 was greater than 10 µM in assay [1], greater than 10 µM in assay [2], less than 1 µM in assay [3] and greater than 10 µM in assay [4].
Regarding `CC(C)(C(=O)NC1C2CC3CC(C2)CC1C3)c1cccc(/C=C/C(=O)OCc2ccccc2)c1` (stereo not shown) [Compound 198], the IC50 is greater than 10 µM in assay [1], greater than 10 µM in assay [2], less than 1 µM in assay [3] and greater than 10 µM in assay [4].
As for `COc1ccc2c(c1)C(C(=O)NC1C3CC4CC(C3)CC1C4)CCC2` (stereo not shown) [Compound 203], the IC50 in assay [1] is greater than 10 µM; in assay [2] it was greater than 10 µM; in assay [3], less than 1 µM; in assay [4], greater than 10 µM.
Take `COc1cc(C)cc(C(C)(C)C(=O)NC2C3CC4CC(C3)CC2C4)c1` (stereo not shown) [Compound 210]: the IC50 was greater than 10 µM in assay [1], greater than 10 µM in assay [2], less than 1 µM in assay [3] and greater than 10 µM in assay [4].
`CC(C)(C(=O)N[C@H]1[C@@H]2CC3C[C@H]1C[C@](F)(C3)C2)c1cccc(CCC(=O)O)c1` [Compound 217]: the IC50 is 1 to 10 µM in assay [1], greater than 10 µM in assay [2], less than 1 µM in assay [3] and greater than 10 µM in assay [4].
As for `O=C(NC1C2CC3CC(C2)CC1C3)C1=CCCc2c(Br)cccc21` (stereo not shown) [Compound 223], the IC50 in assay [1] was less than 1 µM; in assay [2], greater than 10 µM; in assay [3], less than 1 µM; in assay [4] it was greater than 10 µM.
`O=C(NC1C2CC3CC(C2)CC1C3)C1CCc2ccccc2C1` (stereo not shown) [Compound 224]: the IC50 in assay [1] was less than 1 µM; in assay [2] it was greater than 10 µM; in assay [3], less than 1 µM; in assay [4] it was greater than 10 µM.
With `Cc1cc(CCC(=O)O)cc(C(C)(C)C(=O)NC2C3CC4CC(C3)CC2C4)c1` (stereo not shown) [Compound 230], the IC50 in assay [1] was less than 1 µM; in assay [2], greater than 10 µM; in assay [3] it was less than 1 µM; in assay [4] it was greater than 10 µM.
With `CC1CCC(C(=O)NC2C3CC4CC(C3)CC2C4)c2ccccc21` (stereo not shown) [Compound 236], the IC50 in assay [1] is less than 1 µM; in assay [2], greater than 10 µM; in assay [3], less than 1 µM; in assay [4], greater than 10 µM.
For the compound `O=C(O)CCc1cccc2c1CCCC2C(=O)NC1C2CC3CC(C2)CC1C3` (stereo not shown) [Compound 240], the IC50 in assay [1] is greater than 10 µM; in assay [2], greater than 10 µM; in assay [3], less than 1 µM; in assay [4], greater than 10 µM.
With `CC(C)(C(=O)N[C@@H]1[C@@H]2CC3C[C@H]1C[C@@](O)(C3)C2)c1cccc(CCC(=O)O)c1` [Compound 242], the IC50 in assay [1] was 1 to 10 µM; in assay [2], greater than 10 µM; in assay [3], less than 1 µM; in assay [4], greater than 10 µM.
With `O=C(N[C@H]1[C@@H]2CC3C[C@H]1C[C@](O)(C3)C2)C1CCc2ccccc2C1` (stereo partly shown) [Compound 243], the IC50 in assay [1] was less than 1 µM; in assay [2], greater than 10 µM; in assay [3] it was less than 1 µM; in assay [4], greater than 10 µM.
Take `Cc1cc(CCC(=O)N2CCOCC2)cc(C(C)(C)C(=O)N[C@H]2[C@@H]3CC4C[C@H]2C[C@](O)(C4)C3)c1` [Compound 248]: the IC50 in assay [1] was less than 1 µM; in assay [2], greater than 10 µM; in assay [3], less than 1 µM; in assay [4], greater than 10 µM.
